The values below come from publication PMC6222558, “Synthesis and Evolution of Berberine Derivatives as a New Class of Antiviral Agents against Enterovirus 71 through the MEK/ERK Pathway and Autophagy” (Molecules : A Journal of Synthetic Chemistry and Natural …, 2018).

The structures appear in SMILES notation. Where a name gives a salt, the structure may show the parent alone. Read-outs that look alike come from different tables or passages of the source.

Data set [1] concerns EV71 BrCr strain (VR-1775, genotype A). The data set can be described thus: CPE inhibition assay for anti-EV71, BrCr strain. The note with it: Enterovirus A, read-out: BrCr Strain IC50. It is filed as cell-based, enterovirus 71 (EV71). The method, then: (§1) Thus, all newly synthesized BBR analogues were screened for their anti-EV71 potencies in African green monkey kidney (Vero) cells taking BBR as the positive control. EV71 strains used in the present study include different genotype strains, such as H strain (VR-1432, genotype C2), BrCr strain (VR-1775, genotype A), and JS-52 and SHZH98 (genotype C4). The potency against EV71 strains above mentioned of each tested compound was evaluated by the combination of its IC50 and selectivity index (SI) value as the important therapeutic indication.
(§2) Vero cells were purchased from the American Type Culture Collection (ATCC, […], MD, USA), and were cultured in Minimum Essential Medium (MEM) supplemented with 10% fetal bovine serum (FBS) (GIBCO, Grand Island, NY, USA) and antibiotics (100 U/mL penicillin and […] streptomycin) at 37 °C in a 5% CO2 incubator. EV71 strain SHZH98 isolated from the throat swab sample of an HFMD case occurring in 1998 in China was kindly provided by Dr. Qi Jin (Institute of Pathogen Biology, Chinese Academy of Medical Science and Peking Union Medical School, Beijing, China), and JS-52 strain was a kind gift from Dr. Xiangzhong Ye (Beijing Wantai Biological Pharmacy Enterprise Co., Ltd., Beijing, China). The EV71 BrCr and H strains were purchased from the ATCC. All of EV71 strains were passaged in Vero cells.
(§3) The anti-EV71 activities of all tested compounds were detected by the virus-induced CPE assay. Briefly, cells (3 × 10^4 cells/well) were plated into 96-well culture plates and incubated for 16 h. Then, remove the medium and infected cells with EV71 of 100 × TCID50 (50% tissue culture infective doses) in serum-free medium for 1 h at 37 °C. After that, the unbound viruses were removed and various concentrations of tested compounds were supplemented for incubation of another 72 h. […] TC50 defined as the concentration that leads to the 50% of CPE which determined by the same method in 72 h. In addition, the cells were stained the cells were colored with 0.5% crystal violet in 20% ethanol for 15 min at room temperature and the cells were imaged after rinsed with PBS.

For data set [2], the system named is EV71 H strain (VR-1432, genotype C2). As to the kind of experiment: CPE inhibition assay for anti-EV71, H strain. The following applies: for IC50: Enterovirus A, read-out: H Strain IC50; for anti-EV71 activity against H strain, in words: compared with BBR. It is filed as cell-based, enterovirus 71 (EV71). The method, then:
as §1, §2, §3

For data set [3], the system named is EV71 SHZH98 strain (genotype C4). The data set can be described thus: CPE inhibition assay for anti-EV71, SHZH98 strain. It is filed as cell-based, enterovirus 71 (EV71). The following applies: Enterovirus A, read-out: SHZH98 Strain IC50. The protocol:
as §1, §2, §3

For the next data set, the system named is Vero cells. As to the kind of experiment: Cytotoxicity assay (CCK) in Vero cells. It is filed as cell-based, African green monkey. The following applies: for TC50 (median toxic concentration): African green monkey, 48 h. The method, then:
as §2
Cytotoxicity of all target compounds in Vero cells was analyzed by CCK (TransGen Biotech, Beijing, China) assay. In brief, cells in exponential phase (3 × 10^4 cells/well) were seeded into 96-well culture plates and incubated overnight. Then, the medium was removed and different concentrations of all target compounds were applied in duple. After 48 h incubation, the cytotoxicity of all target compounds was determined by CCK assay. The signals were read at 450 nm on Enspire (Perkin Elmer, Waltham, MA, USA). The TC50 was defined as the concentration that inhibits 50% cellular growth in comparison with the controls. It is calculated by the Reed and Muench method.

The test system of data set [4] is EV71 JS-52 strain (genotype C4). The data set can be described thus: CPE inhibition assay for anti-EV71, JS-52 strain. It is filed as cell-based, enterovirus 71 (EV71). The following applies: Enterovirus A, read-out: JS-52 Strain IC50. The protocol: as §1, §2, §3
Where [5] appears, read: EV71, Vero cells, CPE, calculated on the organic part, n = 3.

The term melting point denotes the temperature of the solid-liquid transition. With `COc1ccc2cc3[n+](cc2c1OCC(=O)OCC(C)C)CCc1cc2c(cc1-3)OCO2` (as salt: chloride) [2b, 2,3-Methylenedioxy-9-isobutyloxyformylmethylenoxy-10-methoxy protoberberine chloride], the melting point was in the range of 232 to 234 °C.

In turn, `COc1ccc2cc3[n+](cc2c1OCC(=O)C(C)(C)C)CCc1cc2c(cc1-3)OCO2` (as salt: chloride) [2c, 2,3-Methylenedioxy-9-pivalylmethylenoxy-10-methoxy protoberberine chloride] yielded a melting point of 242 to 244 °C.

`COc1ccc2cc3[n+](cc2c1OCC(=O)c1ccc(C)cc1)CCc1cc2c(cc1-3)OCO2` (as salt: chloride) [2e, 2,3-Methylenedioxy-9-p-tolylformylmethylenoxy-10-methoxy protoberberine chloride] had a melting point of 219 to 221 °C.

Regarding `COc1cccc(C(=O)COc2c(OC)ccc3cc4[n+](cc23)CCc2cc3c(cc2-4)OCO3)c1` (as salt: chloride) [2f, 2,3-Methylenedioxy-9-m-methoxyphenylformylmethylenoxy-10-methoxy protoberberine chloride], the melting point is 214 to 216 °C.

In turn, `COc1ccc2cc3[n+](cc2c1OCC(=O)c1ccc(C(F)(F)F)cc1)CCc1cc2c(cc1-3)OCO2` (as salt: chloride) [2g, 2,3-Methylenedioxy-9-p-trifloromethylphenylformylmethylenoxy-10-methoxy protoberberine chloride] had a melting point of 238 to 240 °C.

Regarding `COc1ccc2cc3[n+](cc2c1OC(=O)OCc1ccccc1)CCc1cc2c(cc1-3)OCO2` (as salt: chloride) [2h, 2,3-Methylenedioxy-9-benzyloxyformyloxy-10-methoxy protoberberine chloride], the melting point lay in the range of 195 to 197 °C.

On to `CCOC(=O)Oc1c(OC)ccc2cc3[n+](cc12)CCc1cc2c(cc1-3)OCO2` (as salt: chloride) [2i, 2,3-Methylenedioxy-9-ethyloxyformyloxy-10-methoxy protoberberine chloride], for which the melting point lay within 218 to 220 °C.

`CCOC(=O)COc1c(OC)ccc2cc3[n+](cc12)CCc1cc(OC)c(OC)cc1-3` (as salt: chloride) [4a, 2,3,10-Trimethoxy-9-ethyloxyformylmethylenoxy protoberberine chloride]: the melting point was in the range of 204 to 206 °C.

Compound `COc1cc2c(cc1OC)-c1cc3ccc(OC)c(OCC(=O)C(C)(C)C)c3c[n+]1CC2` (as salt: chloride) [4b, 2,3,10-Trimethoxy-9-pivalylmethylenoxy protoberberine chloride] gave a melting point of 227 to 229 °C.

`COc1cc2c(cc1OC)-c1cc3ccc(OC)c(OCC(=O)OCc4ccccc4)c3c[n+]1CC2` (as salt: chloride) [4c, 2,3,10-Trimethoxy-9-benzyloxyformylmethylenoxy protoberberine chloride] showed a melting point of 196 to 198 °C.

For the compound `COc1cc2c(cc1OC)-c1cc3ccc(OC)c(OCC(=O)c4ccc(C)cc4)c3c[n+]1CC2` (as salt: chloride) [4d, 2,3,10-Trimethoxy-9-p-tolylformylmethylenoxy protoberberine chloride], the melting point lay within 228 to 230 °C.

Turning to `COc1cccc(C(=O)COc2c(OC)ccc3cc4[n+](cc23)CCc2cc(OC)c(OC)cc2-4)c1` (as salt: chloride) [4e, 2,3,10-Trimethoxy-9-m-methoxyphenylformylmethylenoxy protoberberine chloride], the melting point lay in the range of 200 to 202 °C.

By IC50 is commonly meant the concentration that inhibits the measured activity by half. Regarding `COc1cc2c(cc1OCC(=O)C(C)(C)C)CC[n+]1cc3c(OC)c(OC)ccc3cc1-2` [5b, 2,9,10-Trimethoxy-3-pivalylmethylenoxy protoberberine chloride], the 50% inhibitory concentration (IC50) is 34.2 µM in data set [1] (setting [5]), 41.3 µM in data set [2] (setting [5]), 69.3 µM in data set [3] (setting [5]) and 34.2 µM in data set [4] (setting [5]). The “TC50 (median toxic concentration)” value in the data set on Vero cells was determined as 83.3 µM.

For `COc1cc2c(cc1OCC(=O)OCc1ccccc1)CC[n+]1cc3c(OC)c(OC)ccc3cc1-2` [5c, 2,9,10-Trimethoxy-3-benzyloxyformylmethylenoxy protoberberine chloride], the half-maximal inhibitory concentration (IC50) in data set [1] (setting [5]) was 44.1 µM; in data set [2] (setting [5]), 93.7 µM; in data set [3] (setting [5]), 123 µM; in data set [4] (setting [5]) it was 101 µM. Besides, the “TC50 (median toxic concentration)” value in the data set with Vero cells came out at 248 µM.

On to `COc1cc2c(cc1OCC(=O)c1ccc(C)cc1)CC[n+]1cc3c(OC)c(OC)ccc3cc1-2` [5d, 2,9,10-Trimethoxy-3-p-methylphenylformylmethylenoxy protoberberine chloride], for which the IC50 in data set [1] (setting [5]) is over 15.9 µM; in data set [2] (setting [5]), over 15.9 µM; in data set [3] (setting [5]), 12 µM; in data set [4] (setting [5]) it was 9.01 µM. Also, the “TC50 (median toxic concentration)” value in the data set on Vero cells worked out at 41.0 µM.

For the compound `COc1cccc(C(=O)COc2cc3c(cc2OC)-c2cc4ccc(OC)c(OC)c4c[n+]2CC3)c1` [5e, 2,9,10-Trimethoxy-3-m-methoxyphenylformylmethylenoxy protoberberine chloride], the IC50 was 9.2 µM in data set [1] (setting [5]), 10.4 µM in data set [2] (setting [5]), 9.13 µM in data set [3] (setting [5]) and 8.69 µM in data set [4] (setting [5]). Moreover, the “anti-EV71 activity against H strain, in words” value (“anti-EV71 activity” for short) in data set [2] (Vero cells) is “ideal activities compared with BBR”. The “cytotoxicity, in words” value in the data set with Vero cells is recorded as “high cytotoxicity”. Besides, the “TC50 (median toxic concentration)” value in the data set on Vero cells is 27.6 µM.

For `COc1cc2c(cc1OCC(=O)c1ccc(C(F)(F)F)cc1)CC[n+]1cc3c(OC)c(OC)ccc3cc1-2` [5f, 2,9,10-Trimethoxy-3-p-trifloromethylphenylformylmethylenoxy protober berine chloride], the IC50 in data set [1] (setting [5]) is 25.4 µM; in data set [2] (setting [5]), 40.4 µM; in data set [3] (setting [5]) it was 68.4 µM; in data set [4] (setting [5]) it was 27 µM. The “anti-EV71 activity” value in data set [2] (Vero cells) was “partially or completely lost”. In the data set with Vero cells, the “TC50 (median toxic concentration)” value stood at 143 µM.

Take `COc1cc2c(cc1OC(=O)OCc1ccccc1)CC[n+]1cc3c(OC)c(OC)ccc3cc1-2` [5g, 2,9,10-Trimethoxy-3-benzyloxyformyloxy protoberberine chloride]: the IC50 is 82.8 µM in data set [1] (setting [5]), 143 µM in data set [2] (setting [5]), 86.7 µM in data set [3] (setting [5]) and 51.3 µM in data set [4] (setting [5]). The “anti-EV71 activity” value in data set [2] (Vero cells) is on record as “partially or completely lost”. Besides, the “TC50 (median toxic concentration)” value in the data set with Vero cells was determined as 265 µM.

For the compound `COc1cc2c(cc1O)CC[n+]1cc3c(OC)c(OC)ccc3cc1-2` [JTH, jatrorrhizine, reference compound], the IC50 is over 147 µM in data set [1] (EV71, Vero); over 147 µM in data set [2] (EV71, Vero); 147 µM in data set [3] (EV71, Vero); 147 µM in data set [4] (EV71, Vero). The “anti-EV71 activity” value in data set [2] (Vero cells) is reported as “decreased activity”. In the data set on Vero cells, the “TC50 (median toxic concentration)” value came out at 255 µM.

`COc1ccc2cc3[n+](cc2c1O)CCc1cc2c(cc1-3)OCO2` [compound 1]: the IC50 in data set [1] (setting [5]) was 35.4 µM; in data set [2] (setting [5]) it was 37 µM; in data set [3] (setting [5]), 32.6 µM; in data set [4] (setting [5]), 28.5 µM. In addition, in data set [2] (Vero cells), the “anti-EV71 activity” value is reported as “decreased activity”. Moreover, the “TC50 (median toxic concentration)” value in the data set on Vero cells was 85.5 µM.

With `COc1cc2c(cc1OC)-c1cc3ccc(OC)c(O)c3c[n+]1CC2` [compound 3], the IC50 in data set [1] (setting [5]) is 135 µM; in data set [2] (setting [5]), 121 µM; in data set [3] (setting [5]), 132 µM; in data set [4] (setting [5]), 102 µM. Moreover, the “anti-EV71 activity” value in data set [2] (Vero cells) is given as “decreased activity”. In addition, the “TC50 (median toxic concentration)” value with Vero cells is 254 µM.
